Tested on: HPRT gene
Assay: Hprt mutation assay in synchronized CHO cells
Assay type: cell-based, Chinese Hamster
Description: Synchronization protocol: Chinese Hamster Ovary (CHO) AA8 cells (ATCC) were prepared as described above for the HPRT knockout assay. The cells were synchronized in G0/G1 by a variation of the method described by Sawai et al. (96). Briefly, cells were plated at subconfluent levels and the next day the medium changed to DMEM with 2% FBS and 2% DMSO. After 48 h the cells were washed (˜85% G0/G1 cells by FACS analysis) and either electroporated or fed with complete medium (for G1 phase experiments), or incubated with complete medium containing 100 μM mimosine for 16 hrs to block them in early S phase (˜90% early S cells). See Orren et al. for complete details on this procedure (49). After 16 hrs the cells were released from the mimosine block by feeding with DMEM/10% FBS. TFO electroporation, Psoralen treatment, and Hprt mutation assay: Cells were suspended at 10^7/mL and mixed with TFO at 5 μM. The cells were electroporated (BioRad), followed by incubation at room temperature for 3 hrs, and a 3 min exposure in a Rayonet chamber to UVA light at 1.8 J/cm^2. […] Cells treated with free psoralen were incubated with 5 μM psoralen for 30 min, followed by UVA treatment. The cells were passaged and then exposed to thioguanine (TG) selection (43).

O=c1ccc2cc3ccoc3cc2o1 [psoralen]
frequency of thioguanine resistant colonies (5 μM free psoralen 30 min, UVA, different phases of cell cycle, background 0.001%): 0.004-0.005% | cell cycle variability of mutation frequency (free psoralen/UVA): essentially unchanged across the cell cycle

Source: patent publication US20040009602A1, “DNA modifying molecules and methods of use thereof” (The Government of the U.S.A. as represented by the …, priority 2002, published 2004)
